The values below come from US8927500B2, “Peptidomimetic macrocycles” (Aileron Therapeutics, Inc., priority 2012, dated 2015).

The target of one assay is MDM2 (Homo sapiens, UniProt Q00987). The assay is described as follows: Competitive fluorescence polarization assay for MDM2. In kind it is binding. The note with it: competitive FP assay, MDM2; for IC50: read-out: IC50 (MDM2); for Ki: read-out: Ki (MDM2). (In general: Fluorescence polarisation rises when a labelled molecule tumbles more slowly, as on binding a larger partner.)

For the next assay, the target named is T1, MDMX (Homo sapiens, UniProt O15151).
T1 sequence (O15151 1-125): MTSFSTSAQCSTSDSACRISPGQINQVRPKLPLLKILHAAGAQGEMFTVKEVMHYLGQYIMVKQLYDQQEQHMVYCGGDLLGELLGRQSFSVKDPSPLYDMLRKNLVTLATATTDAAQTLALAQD
Description: Competitive fluorescence polarization assay for MDMX. The note with it: competitive FP assay; for IC50: read-out: IC50 (MDMX); for Ki: read-out: Ki (MDMX). In kind it is binding.

Where a SMILES comes first, the peptide text is derived from it. Bridges are numbered along the chain shown (N, C = ends). [ ]: non-standard residue; d: D form. The star is where a group is joined. 5TAMRA = CN(C)c1ccc2c(c1)Oc1cc(N(C)C)ccc1C21OC(=O)c2cc(C(=O)*)ccc21; R8 = C=CCCCCCC[C@@](C)(N)C(=O)O; Cha = N[C@@H](CC1CCCCC1)C(=O)O; Cba = N[C@@H](CC1CCC1)C(=O)O; hLeu = CC(C)CC[C@H](N)C(=O)O; S5 = C=CCCC[C@](C)(N)C(=O)O; Nle = CCCC[C@H](N)C(=O)O; Aib = CC(C)(N)C(=O)O; βAla = NCCC(=O)O A value given as a limit tells only on which side of the number the result lay.

Sequence of MDM2 (Q00987 1-125): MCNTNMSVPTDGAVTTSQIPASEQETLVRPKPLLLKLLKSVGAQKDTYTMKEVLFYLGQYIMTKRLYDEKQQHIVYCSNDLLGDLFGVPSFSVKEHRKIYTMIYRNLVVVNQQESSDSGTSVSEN

For `CC(=O)N[C@@H](CC(C)C)C(=O)N[C@H](C(=O)N[C@@H](Cc1ccccc1)C(=O)N[C@]1(C)CCCCCCCCCCC[C@@](C)(C(=O)N[C@@H](CO)C(=O)N[C@@H](C)C(=O)N[C@@H](C)C(N)=O)NC(=O)[C@H](CC2CCC2)NC(=O)[C@H](CCC(N)=O)NC(=O)[C@H](C)NC(=O)[C@H](Cc2c[nH]c3ccccc23)NC(=O)[C@H](Cc2ccc(O)cc2)NC(=O)[C@H](CCC(=O)O)NC1=O)[C@@H](C)O` [compound 434], on MDM2, the IC50 is 0.01 to 0.1 µM and the Ki was below 0.01 µM. Moreover, on MDMX, the 50% inhibitory concentration (IC50) was in the range of 0.01 to 0.1 µM and the Ki was in the range of 0.01 to 0.1 µM.
Take `CCCC[C@H](NC(=O)[C@H](C)NC(=O)[C@H](C)NC(=O)[C@]1(C)CCCC=CCCCCCC[C@@](C)(NC(=O)[C@H](Cc2ccccc2)NC(=O)[C@@H](NC(=O)[C@H](CC(C)C)NC(C)=O)[C@@H](C)O)C(=O)N[C@@H](CCC(=O)O)C(=O)N[C@@H](Cc2ccc(O)cc2)C(=O)N[C@@H](Cc2c[nH]c3ccccc23)C(=O)N[C@@H](C)C(=O)N[C@@H](CCC(N)=O)C(=O)N[C@@H](CCC(C)C)C(=O)N1)C(=O)N[C@@H](C)C(=O)N[C@@H](C)C(N)=O` [compound 381] (Ac-LTF[R8]EYWAQ[hLeu][S5]AA[Nle]AA-NH2; staple 4-11): on MDM2, the half-maximal inhibitory concentration (IC50) lay within 0.01 to 0.1 µM and the Ki is below 0.01 µM. Further, at MDMX, the IC50 lay in the range of 0.01 to 0.1 µM and the Ki was 0.01 to 0.1 µM.
In the case of `CC(=O)N[C@@H](CCCNC(=N)N)C(=O)N[C@H](C(=O)N[C@@H](Cc1ccccc1)C(=O)N[C@]1(C)CCCCCCC=CCCC[C@@](C)(C(=O)N[C@@H](CO)C(=O)N[C@@H](C)C(=O)N[C@@H](C)C(N)=O)NC(=O)[C@H](CC2CCC2)NC(=O)[C@H](CCC(N)=O)NC(=O)[C@H](C)NC(=O)[C@H](Cc2c[nH]c3ccccc23)NC(=O)[C@H](Cc2ccc(O)cc2)NC(=O)[C@H](CCC(=O)O)NC1=O)[C@@H](C)O` [compound 360] (Ac-RTF[R8]EYWAQ[Cba][S5]SAA-NH2; staple 4-11), the IC50 at MDM2 and on MDMX was below 0.01 µM throughout. Besides, the Ki at MDM2 and on MDMX was below 0.01 µM throughout.
On to `CCCCCCNC(=O)[C@H](C)NC(=O)[C@H](CCCC)NC(=O)[C@H](C)NC(=O)[C@H](C)NC(=O)[C@]1(C)CCCC=CCCCCCC[C@@](C)(NC(=O)[C@H](Cc2ccccc2)NC(=O)[C@@H](NC(=O)[C@H](CC(C)C)NC(C)=O)[C@@H](C)O)C(=O)N[C@@H](C)C(=O)N[C@@H](Cc2ccc(O)cc2)C(=O)N[C@@H](Cc2c[nH]c3ccccc23)C(=O)N[C@@H](C)C(=O)N[C@@H](CCC(N)=O)C(=O)N[C@@H](CC(C)C)C(=O)N1` (single isomer, unassigned) [compound 427], for which, on MDM2, the IC50 was in the range of 0.1 to 1 µM and the inhibition constant (Ki) was 0.01 to 0.1 µM. At MDMX, the IC50 lay in the range of 0.1 to 1 µM and the inhibition constant (Ki) lay within 0.01 to 0.1 µM.
As to `CC(=O)N[C@@H](CC(C)C)C(=O)N[C@H](C(=O)N[C@@H](Cc1ccccc1)C(=O)N[C@]1(C)CCCCCCC=CCCC[C@@](C)(C(=O)N[C@@H](CO)C(=O)N[C@@H](C)C(=O)N[C@@H](Cc2ccccc2)C(=O)N[C@H](C)C(N)=O)NC(=O)[C@H](CC2CCC2)NC(=O)[C@H](CCC(N)=O)NC(=O)[C@H](C)NC(=O)[C@H](Cc2c[nH]c3ccccc23)NC(=O)[C@H](Cc2ccc(O)cc2)NC(=O)[C@H](CCC(=O)O)NC1=O)[C@@H](C)O` [compound 257] (Ac-LTF[R8]EYWAQ[Cba][S5]SAF[dA]-NH2; staple 4-11), on MDM2, the IC50 lay in the range of 0.01 to 0.1 µM and the Ki was below 0.01 µM. At MDMX, the IC50 lay in the range of 0.01 to 0.1 µM and the Ki was 0.01 to 0.1 µM.
Regarding `CC(=O)N[C@@H](CC(C)C)C(=O)N[C@H](C(=O)N[C@@H](Cc1ccccc1)C(=O)N[C@]1(C)CCCCCCC=CCCC[C@@](C)(C(=O)N[C@@H](C)C(=O)N[C@@H](C)C(=O)N[C@@H](C)C(N)=O)NC(=O)[C@H](CC2CCC2)NC(=O)[C@H](CCC(N)=O)NC(=O)[C@H](C)NC(=O)[C@H](Cc2c[nH]c3ccccc23)NC(=O)[C@H](Cc2ccc(O)cc2)NC(=O)[C@H](CCC(=O)O)NC1=O)[C@@H](C)O` (single isomer, unassigned) [compound 716], the inhibitory constant (Ki) at MDM2 and on MDMX was below 0.01 µM in each case.
On to `CC(=O)N[C@@H](CC(C)C)C(=O)N[C@H](C(=O)N[C@@H](Cc1ccccc1)C(=O)N[C@]1(C)CCCCCCC=CCCC[C@@](C)(C(=O)N[C@@H](CO)C(=O)N[C@@H](C)C(=O)N[C@@H](C)C(N)=O)NC(=O)[C@H](CC2CCC2)NC(=O)[C@H](CCC(N)=O)NC(=O)[C@H](C)NC(=O)[C@H](Cc2c[nH]c3ccccc23)NC(=O)[C@H](Cc2ccc(O)cc2)NC(=O)[C@H](C)NC1=O)[C@@H](C)O` [compound 255] (Ac-LTF[R8]AYWAQ[Cba][S5]SAA-NH2; staple 4-11), for which, on MDM2, the IC50 was 0.01 to 0.1 µM and the inhibitory constant (Ki) is below 0.01 µM. At MDMX, the IC50 is 0.01 to 0.1 µM and the Ki fell in the range of 0.01 to 0.1 µM.
As to `CC(=O)N[C@@H](CC(C)C)C(=O)N[C@H](C(=O)N[C@@H](Cc1ccccc1)C(=O)N[C@]1(C)CCCCCCC=CCCC[C@@](C)(C(=O)N[C@@H](CO)C(=O)N[C@@H](C)C(=O)N[C@@H](Cc2ccccc2)C(N)=O)NC(=O)[C@H](CC2CCC2)NC(=O)[C@H](CCC(N)=O)NC(=O)[C@H](Cc2c[nH]c3ccccc23)NC(=O)[C@H](Cc2c[nH]c3ccccc23)NC(=O)[C@H](Cc2ccc(O)cc2)NC(=O)[C@H](C)NC1=O)[C@@H](C)O` [compound 263] (Ac-LTF[R8]AYWWQ[Cba][S5]SAF-NH2; staple 4-11), on MDM2, the IC50 lay within 0.01 to 0.1 µM and the Ki is below 0.01 µM. Besides, on MDMX, the IC50 lay within 0.1 to 1 µM and the Ki was in the range of 0.01 to 0.1 µM.
As for `CC(=O)N[C@@H](Cc1ccccc1)C(=O)N[C@]1(C)CCCCCCC=CCCC[C@@](C)(C(=O)N[C@@H](CCCNC(=N)N)C(=O)N[C@@H](CCCNC(=N)N)C(=O)N[C@@H](CC(=O)O)C(=O)N[C@@H](CC2CCCCC2)C(N)=O)NC(=O)[C@H](CC(C)C)NC(=O)[C@H](CCC(N)=O)NC(=O)[C@H](Cc2c[nH]cn2)NC(=O)[C@H](Cc2c[nH]c3ccccc23)NC(=O)[C@H](Cc2c[nH]cn2)NC(=O)[C@H](Cc2c[nH]cn2)NC1=O` [compound 30] (Ac-F[R8]HHWHQL[S5]RRD[Cha]-NH2; staple 2-9), the IC50 on MDM2 and at MDMX was 0.1 to 1 µM each time. Also, the Ki at MDM2 and on MDMX was 0.01 to 0.1 µM in each case.
With `CCCC[C@H](NC(=O)[C@H](Cc1c[nH]c2ccccc12)NC(=O)[C@H](C)NC(=O)[C@]1(C)CCCC=CCCCCCC[C@@](C)(NC(=O)[C@H](Cc2ccccc2)NC(=O)[C@@H](NC(=O)[C@H](CC(C)C)NC(C)=O)[C@@H](C)O)C(=O)N[C@@H](CCC(=O)O)C(=O)N[C@@H](Cc2ccc(O)cc2)C(=O)N[C@@H](Cc2c[nH]c3ccccc23)C(=O)N[C@@H](C)C(=O)N[C@@H](CCC(N)=O)C(=O)N[C@@H](CC(C)C)C(=O)N1)C(=O)N[C@H](C)C(N)=O` [compound 277] (Ac-LTF[R8]EYWAQL[S5]AW[Nle][dA]-NH2; staple 4-11), on MDM2, the IC50 fell in the range of 0.01 to 0.1 µM and the Ki is below 0.01 µM. Further, at MDMX, the concentration for half-maximal inhibition (IC50) was 0.01 to 0.1 µM and the Ki is below 0.01 µM.
As for `CC(=O)N[C@@H](CC(=O)O)C(=O)N[C@@H](CC(C)C)C(=O)N[C@H](C(=O)N[C@@H](Cc1ccccc1)C(=O)N[C@]1(C)CCCCCCC=CCCC[C@@](C)(C(=O)N[C@@H](CCCNC(=N)N)C(=O)N[C@@H](CCCNC(=N)N)C(=O)N[C@@H](CC(C)C)C(=O)N[C@H](C(N)=O)C(C)C)NC(=O)[C@H](CC(C)C)NC(=O)[C@H](CCC(N)=O)NC(=O)[C@H](Cc2c[nH]cn2)NC(=O)[C@H](Cc2c[nH]c3ccccc23)NC(=O)[C@H](Cc2c[nH]cn2)NC(=O)[C@H](Cc2c[nH]cn2)NC1=O)[C@@H](C)O` [compound 28] (Ac-DLTF[R8]HHWHQL[S5]RRLV-NH2; staple 5-12), on MDM2, the IC50 fell in the range of 0.01 to 0.1 µM and the Ki was below 0.01 µM. At MDMX, the IC50 fell in the range of 0.01 to 0.1 µM and the inhibitory constant (Ki) is 0.01 to 0.1 µM.
As to `CC(=O)N[C@@H](CC(C)C)C(=O)N[C@H](C(=O)N[C@@H](Cc1ccccc1)C(=O)N[C@]1(C)CCCCCCC=CCCC[C@@](C)(C(=O)N[C@@H](C)C(=O)N[C@@H](C)C(=O)N[C@H](C(=O)N[C@H](C)C(N)=O)C(C)C)NC(=O)[C@H](CC(C)C)NC(=O)[C@H](CCC(N)=O)NC(=O)[C@H](C)NC(=O)[C@H](Cc2c[nH]c3ccccc23)NC(=O)[C@H](Cc2ccc(O)cc2)NC(=O)[C@H](C)NC1=O)[C@@H](C)O` (single isomer, unassigned) [compound 213], on MDM2, the half-maximal inhibitory concentration (IC50) is below 0.01 µM and the Ki was below 0.01 µM. At MDMX, the IC50 lay within 0.1 to 1 µM and the Ki is 0.01 to 0.1 µM.
Regarding `CC(C)C[C@H](NC(=O)CCNC(=O)c1ccc2c(c1)C(=O)OC21c2ccc(N(C)C)cc2Oc2cc(N(C)C)ccc21)C(=O)N[C@H](C(=O)N[C@@H](C)C(=O)N[C@]1(C)CCCCCCC=CCCC[C@@](C)(C(=O)N[C@@H](CO)C(=O)N[C@@H](C)C(=O)N[C@@H](C)C(N)=O)NC(=O)[C@H](CC2CCC2)NC(=O)[C@H](CCC(N)=O)NC(=O)[C@H](C)NC(=O)[C@H](Cc2c[nH]c3ccccc23)NC(=O)[C@H](Cc2ccc(O)cc2)NC(=O)[C@H](CCC(=O)O)NC1=O)[C@@H](C)O` [compound 687] ({5TAMRA-βAla}-LTA[R8]EYWAQ[Cba][S5]SAA-NH2; staple 4-11), the Ki on MDM2 and at MDMX was 0.1 to 1 µM throughout.
Turning to `CC(=O)N[C@@H](CC(C)C)C(=O)N[C@H](C(=O)N[C@@H](Cc1ccccc1)C(=O)N[C@]1(C)CCCCCCC=CCCC[C@@](C)(C(=O)N[C@@H](Cc2c[nH]cn2)C(=O)NC(C)(C)C(=O)N[C@@H](CCC(C)C)C(=O)N[C@H](C(N)=O)C(C)C)NC(=O)[C@H](CC(C)C)NC(=O)[C@H](CCC(N)=O)NC(=O)[C@H](C)NC(=O)[C@H](Cc2c[nH]c3ccccc23)NC(=O)[C@H](Cc2ccc(O)cc2)NC(=O)[C@H](C)NC1=O)[C@@H](C)O` [compound 49] (Ac-LTF[R8]AYWAQL[S5]H[Aib][hLeu]V-NH2; staple 4-11), the IC50 at MDM2 and on MDMX was 0.1 to 1 µM each time. In addition, the Ki on MDM2 and at MDMX was 0.01 to 0.1 µM throughout.

By IC50 is commonly meant the midpoint of a concentration-inhibition curve. Broadly, the Ki is a measure of affinity in units of concentration, obtained from inhibition or displacement.
